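Method: 48-hour compound exposure of cells in 96-well plates, five concentrations, linear interpolation of endpoints. GI50: concentration for 50% inhibition of growth. Definition used: TGI = concentration required for complete inhibition of growth.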
Assays:
Experiment in all cases: inhibition of tumour cell growth, NCI panel, 48 h
T-47D breast = system: T-47D breast
CCRF-CEM leukemia = system: CCRF-CEM leukemia
SF-295 CNS = system: SF-295 CNS
UO-31 renal = system: UO-31 renal
SR leukemia = system: SR leukemia
MDA-MB-231 breast = system: MDA-MB-231 breast
COLO 205 colon = system: COLO 205 colon
PC-3 prostate = system: PC-3 prostate
OVCAR-5 ovarian = system: OVCAR-5 ovarian
SNB-19 CNS = system: SNB-19 CNS
RPMI-8226 leukemia = system: RPMI-8226 leukemia
SK-MEL-5 melanoma = system: SK-MEL-5 melanoma
HCC-2998 colon = system: HCC-2998 colon
SK-MEL-28 melanoma = system: SK-MEL-28 melanoma
NCI-H460 lung = system: NCI-H460 lung
IGROV1 ovarian = system: IGROV1 ovarian
HCT-116 colon = system: HCT-116 colon
SNB-75 CNS = system: SNB-75 CNS
SF-539 CNS = system: SF-539 CNS
EKVX NSCLC = system: EKVX NSCLC
M14 melanoma = system: M14 melanoma
SF-268 CNS = system: SF-268 CNS
OVCAR-3 ovarian = system: OVCAR-3 ovarian
NCI/ADR-RES ovarian = system: NCI/ADR-RES ovarian
SK-OV-3 ovarian = system: SK-OV-3 ovarian
UACC-62 melanoma = system: UACC-62 melanoma
HS 578T breast = system: HS 578T breast
K-562 leukemia = system: K-562 leukemia
TK-10 renal = system: TK-10 renal
U251 CNS = system: U251 CNS
ACHN renal = system: ACHN renal
SK-MEL-2 melanoma = system: SK-MEL-2 melanoma
NCI-H226 lung = system: NCI-H226 lung
UACC-257 melanoma = system: UACC-257 melanoma
OVCAR-4 ovarian = system: OVCAR-4 ovarian
MCF7 breast = system: MCF7 breast
KM12 colon = system: KM12 colon
SW-620 colon = system: SW-620 colon
BT-549 breast = system: BT-549 breast
A549 NSCLC = system: A549 NSCLC
MDA-MB-435 = system: MDA-MB-435
DU-145 prostate = system: DU-145 prostate
HOP-62 NSCLC = system: HOP-62 NSCLC
LOX IMVI melanoma = system: LOX IMVI melanoma
CAKI-1 renal = system: CAKI-1 renal
HT29 colon = system: HT29 colon
MALME-3M melanoma = system: MALME-3M melanoma
MOLT-4 leukemia = system: MOLT-4 leukemia
NCI-H522 lung = system: NCI-H522 lung
OVCAR-8 ovarian = system: OVCAR-8 ovarian
786-0 renal = system: 786-0 renal
A498 renal = system: A498 renal
SN12C renal = system: SN12C renal
NCI-H23 lung = system: NCI-H23 lung
HCT-15 colon = system: HCT-15 colon
HOP-92 NSCLC = system: HOP-92 NSCLC
HL-60(TB) leukemia = system: HL-60(TB) leukemia
RXF 393 renal = system: RXF 393 renal

## COc1cc(OC)cc(C(=O)Nc2cccc(C#Cc3cccc4[nH]nc(N)c34)c2)c1
T-47D breast
  GI50: 1210 nM
  TGI: 13800 nM
CCRF-CEM leukemia
  GI50: 808 nM
  TGI: > 56000 nM
SF-295 CNS
  GI50: 1130 nM
  TGI: 5170 nM
UO-31 renal
  GI50: 2990 nM
  TGI: 12100 nM
SR leukemia
  GI50: 133 nM
  TGI: 5480 nM
MDA-MB-231 breast
  GI50: 1280 nM
  TGI: 5140 nM
COLO 205 colon
  GI50: 1160 nM
  TGI: 3630 nM
PC-3 prostate
  GI50: 2050 nM
  TGI: > 41200 nM
OVCAR-5 ovarian
  GI50: 2970 nM
  TGI: 45500 nM
SNB-19 CNS
  GI50: 2460 nM
  TGI: 30900 nM
RPMI-8226 leukemia
  GI50: 1770 nM
  TGI: 17800 nM
SK-MEL-5 melanoma
  GI50: 1010 nM
  TGI: 3290 nM
HCC-2998 colon
  GI50: 1980 nM
  TGI: 4920 nM
SK-MEL-28 melanoma
  GI50: 1760 nM
  TGI: 15700 nM
NCI-H460 lung
  GI50: 586 nM
  TGI: 10800 nM
IGROV1 ovarian
  GI50: 1130 nM
  TGI: 11100 nM
HCT-116 colon
  GI50: 548 nM
  TGI: 10700 nM
SNB-75 CNS
  GI50: 306 nM
  TGI: 2710 nM
SF-539 CNS
  GI50: 621 nM
  TGI: 2190 nM
EKVX NSCLC
  GI50: 2920 nM
  TGI: > 38200 nM
M14 melanoma
  GI50: 535 nM
  TGI: 4550 nM
SF-268 CNS
  GI50: 2060 nM
  TGI: 11000 nM
OVCAR-3 ovarian
  GI50: 943 nM
  TGI: 11800 nM
NCI/ADR-RES ovarian
  GI50: 1660 nM
  TGI: 8540 nM
SK-OV-3 ovarian
  GI50: 3680 nM
  TGI: 22600 nM
UACC-62 melanoma
  GI50: 478 nM
  TGI: 6490 nM
HS 578T breast
  GI50: 1250 nM
  TGI: 5430 nM
K-562 leukemia
  GI50: 331 nM
  TGI: > 100000 nM
TK-10 renal
  GI50: 4290 nM
  TGI: 12400 nM
U251 CNS
  GI50: 821 nM
  TGI: 15000 nM
ACHN renal
  GI50: 2640 nM
  TGI: 14700 nM
SK-MEL-2 melanoma
  GI50: 428 nM
  TGI: 1960 nM
NCI-H226 lung
  GI50: 1930 nM
  TGI: 9030 nM
UACC-257 melanoma
  GI50: 2040 nM
  TGI: 11800 nM
OVCAR-4 ovarian
  GI50: 3510 nM
  TGI: 23600 nM
MCF7 breast
  GI50: 469 nM
  TGI: 12300 nM
KM12 colon
  GI50: 957 nM
  TGI: 10400 nM
SW-620 colon
  GI50: 689 nM
  TGI: > 35000 nM
BT-549 breast
  GI50: 1320 nM
  TGI: 6320 nM
A549 NSCLC
  GI50: 1430 nM
  TGI: 18300 nM
MDA-MB-435
  GI50: 201 nM
  TGI: 490 nM
DU-145 prostate
  GI50: 2930 nM
  TGI: > 39000 nM
HOP-62 NSCLC
  GI50: 1710 nM
  TGI: 22500 nM
LOX IMVI melanoma
  GI50: 759 nM
  TGI: 7180 nM
CAKI-1 renal
  GI50: 1640 nM
  TGI: 7180 nM
HT29 colon
  GI50: 641 nM
  TGI: 5370 nM
MALME-3M melanoma
  GI50: 782 nM
  TGI: 13100 nM
MOLT-4 leukemia
  GI50: 931 nM
  TGI: 17800 nM
NCI-H522 lung
  GI50: 485 nM
  TGI: 2700 nM
OVCAR-8 ovarian
  GI50: 2360 nM
  TGI: 13700 nM
786-0 renal
  GI50: 2240 nM
  TGI: 11300 nM
A498 renal
  GI50: 4500 nM
  TGI: 11100 nM
SN12C renal
  GI50: 2700 nM
  TGI: 13900 nM
NCI-H23 lung
  GI50: 2140 nM
  TGI: 11700 nM
HCT-15 colon
  GI50: 492 nM
  TGI: 12500 nM
HOP-92 NSCLC
  GI50: 2300 nM
  TGI: 11700 nM
HL-60(TB) leukemia
  GI50: 441 nM
  TGI: 2510 nM
RXF 393 renal
  GI50: 584 nM
  TGI: 3030 nM

— PubChem BioAssay (NCI)
